In one assay the target is T1, RNase A (Bos taurus, UniProt P61823).
T1 sequence (P61823 27-150): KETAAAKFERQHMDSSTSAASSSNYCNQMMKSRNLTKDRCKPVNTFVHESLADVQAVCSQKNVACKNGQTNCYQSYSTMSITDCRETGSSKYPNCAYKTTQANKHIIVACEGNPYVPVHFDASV
Kind of assay: Thermal denaturation of protein RNase A in urea or 1-butyl urea solution (Poklar et al.). Conditions: for 0.7 M of 1-butyl urea; estimated from temperature profiles of conformational transition of RNase A. The class given is biochemical. The source says: In their thermal denaturation studies of protein RNase A in alkyl urea solutions, Poklar et al., “Thermodynamic Stability of Ribonuclease A in Alkylurea Solutions and Preferential Solvation Changes Accompanying its Thermal Denaturation: A Calorimetric and Spectroscopic Study” in Protein Science, 8:832-840 (1999) report that the thermal stability of RNase A in solution decreases with increasing concentrations of denaturants and the size of the hydrophobic group substituted on the urea molecule.
Based on the temperature profiles of conformational transition (denaturation) of protein RNase A in urea or in 1-butyl urea solution, it can be estimated that 0.7 M of 1-butyl urea is equivalent to about 3.5 M of urea in terms of their protein denaturing capability. These studies provide a general guideline on estimating relative keratolytic activity of urea vs. 1-butyl urea in a dermatological composition.

For assay [1] the following is noted: equal to about 36 to 42% by weight; cited from earlier work.

The source of these data is patent US20070225371A1, “Dermatological composition containing alkyl ureas” (priority 2006, published 2007).

As for `CCCCNC(N)=O` [1-butyl urea], the “urea concentration equivalent in protein denaturing capability” value on RNase A is on record as “about 3.5 M”.
Regarding `NC(N)=O` [urea], in assay [1], the “concentration minimally needed to show any noticeable keratolytic or protein denaturing activity” value is 6 to 7 M.
